Results on 3 substances are retold here after publication PMC11335189, “Revealing molecular determinants governing mambalgin-3 pharmacology at acid-sensing ion channel 1 variants” (Cellular and Molecular Life Sciences: CMLS, 2024).

Positions of bridges follow the written chain, without caps; N, C: chain ends. No end group written: not given here.

Experiment [1] has as its target T1, rASIC1a S83T/Q84E/R175C/E177G (SQRE) (Rattus norvegicus, UniProt P55926, E177G/Q84E/R175C/S83T).
T1 construct: expressed in transfected cells; host or cells: Xenopus laevis oocytes (cRNA injection)
T1 sequence (P55926 1-526 S83T/Q84E/R175C/E177G): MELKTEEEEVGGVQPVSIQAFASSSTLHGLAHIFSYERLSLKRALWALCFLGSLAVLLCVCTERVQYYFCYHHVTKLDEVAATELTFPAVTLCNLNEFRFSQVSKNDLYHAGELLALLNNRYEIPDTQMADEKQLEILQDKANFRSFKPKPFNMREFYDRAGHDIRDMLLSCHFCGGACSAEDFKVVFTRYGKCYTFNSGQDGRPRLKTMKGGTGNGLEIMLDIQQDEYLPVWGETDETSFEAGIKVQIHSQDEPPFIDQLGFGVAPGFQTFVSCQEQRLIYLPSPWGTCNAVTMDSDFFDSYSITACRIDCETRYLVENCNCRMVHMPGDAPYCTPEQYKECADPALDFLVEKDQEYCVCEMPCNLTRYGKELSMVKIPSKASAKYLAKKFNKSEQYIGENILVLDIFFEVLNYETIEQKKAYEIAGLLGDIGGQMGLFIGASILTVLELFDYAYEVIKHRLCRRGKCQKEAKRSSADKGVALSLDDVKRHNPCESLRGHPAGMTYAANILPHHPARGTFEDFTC
As to the kind of experiment: TEVC oocytes, rASIC1a quadruple mutant SQRE. It is filed as cell-based. The conditions noted are these: for remaining activity at 0.3 µM: 300 nM peptide, conditioning pH 7.45, stimulating pH 6, read-out: I/Icontrol. How it is done: Two-electrode voltage-clamp (TEVC) experiments using Xenopus laevis oocytes were conducted as previously described. Briefly, oocytes were surgically removed from anaesthetised female frogs, then treated with collagenase (~ 1 mg/ml, Sigma type I) for 2 h under agitation at room temperature. cRNAs were synthesised using a mMessage mMachine T7 or SP6 transcription kit (Thermo Fisher Scientific Australia Pty Ltd, Scoresby, VIC, Australia) and injected into healthy stage V–VI oocytes at 0.2–20 ng per cell. Different amounts of RNA were used for different wild-type and mutant constructs, as well as to titrate expression levels to record over multiple days and maintaining consistent expression levels. Injected oocytes were incubated at 17 °C for 1–7 days in 50% Leibovitz’s L-15 medium (Gibco, Thermo Fisher Scientific Australia Pty Ltd, Scoresby, VIC, Australia), supplemented with 25 µg/mL gentamicin, 25 µg/mL streptomycin, and 2.5% fetal horse serum. Membrane currents were recorded 2–7 days after cRNA-injection under voltage-clamp at -60 mV (Axon Axoclamp 900 A, Molecular Devices, CA, USA) using two standard glass microelectrodes of 0.5–1 MΩ resistance when filled with 3 M KCl solution. Data were sampled at 2 kHz and filtered at 0.1 kHz using Clampex 10 software (Molecular Devices, CA, USA). A microperfusion system was used to allow fast extracellular solution exchange (bath volume = ~ 30 µL). All experiments were performed at room temperature (18–23 °C) in ND96 (96 mM NaCl, 2 mM KCl, 1.8 mM CaCl2, 2 mM MgCl2, 5 mM HEPES, pH 7.45). In solutions below pH 6.8, HEPES was replaced by MES. All solutions containing peptides contained 0.05% fatty acid free bovine serum albumin to decrease adsorptive losses of peptide to plasticware. For all channels tested, control current magnitudes between 500 and 9000 nA when tested using a conditioning pH of 7.45 and stimulating pH of 6 (except for the chimeras that were stimulated with pH 5) were used for data collection. Before recording any experiments, oocytes were stimulated multiple times with low pH to minimise and stabilise tachyphylaxis/desensitisation, which were then accounted for during analysis. Complete recovery of currents from Ma-3 induced modulation within 3 min of washout at all channels tested allowed for correction for tachyphylaxis/desensitisation during analyses.
Specific to this work, the standard protocol was for oocytes to be conditioned at pH 7.45 and channels stimulated every 60 s using a 5 s pH 5 or 6 application, unless stated otherwise. For all concentration-response data, peptides were applied for ~ 50 s between each low pH stimulus application. Activation curves were determined by conditioning oocytes at pH 8 (Fig. 2e − g; and Fig. 5a and b) or 7.45 (Fig. 6; and Supplementary Fig. 2d and c) for 55 s and applying low pH stimuli from 7.25 to 5.0 for 5 s. Steady-state desensitisation (SSD) was determined by applying conditioning solutions of pH values from 8 to 6 for 115 s prior to stimulation by a pH drop to 5 for 5 s. Ma-3 was only applied in the conditioning solution for activation and steady-state desensitisation curves in the presence of peptide. Control pH-dependence curves were determined in the absence of any Ma-3. When assessing the effect of Ma-3 on the rASIC1a: ASIC1b chimeras (C92 and C166; and for the comparative wild-type data), the conditioning pH was 7.45 and stimulating pH 5 (Fig. 3b). Specific details of the conditioning and stimulating pH are noted in each figure legend.
Data were analysed using pCLAMP-Clampfit software (Version 11, Molecular Devices, CA, USA) and GraphPad Prism 9.5 and 10.2.2 (GraphPad Software, San Diego, CA, USA). To obtain the Hill coefficient (nH) and half-maximal response (EC50, IC50, or pH50) the Hill equation was fitted to normalised concentration-response curves by using a non-linear fit to the data of a four-parameter logistic equation (“sigmoidal dose-response” in GraphPad Prism 9.5). […]

Experiment [2] has as its target T2, rASIC1b C208Q/N324K (CN/QK) (Rattus norvegicus, UniProt P55926, C208Q/N291K).
T2 construct: expressed in transfected cells; host or cells: Xenopus laevis oocytes injected with cRNA
T2 sequence (P55926 1-559 isoform P55926-3 C208Q/N324K): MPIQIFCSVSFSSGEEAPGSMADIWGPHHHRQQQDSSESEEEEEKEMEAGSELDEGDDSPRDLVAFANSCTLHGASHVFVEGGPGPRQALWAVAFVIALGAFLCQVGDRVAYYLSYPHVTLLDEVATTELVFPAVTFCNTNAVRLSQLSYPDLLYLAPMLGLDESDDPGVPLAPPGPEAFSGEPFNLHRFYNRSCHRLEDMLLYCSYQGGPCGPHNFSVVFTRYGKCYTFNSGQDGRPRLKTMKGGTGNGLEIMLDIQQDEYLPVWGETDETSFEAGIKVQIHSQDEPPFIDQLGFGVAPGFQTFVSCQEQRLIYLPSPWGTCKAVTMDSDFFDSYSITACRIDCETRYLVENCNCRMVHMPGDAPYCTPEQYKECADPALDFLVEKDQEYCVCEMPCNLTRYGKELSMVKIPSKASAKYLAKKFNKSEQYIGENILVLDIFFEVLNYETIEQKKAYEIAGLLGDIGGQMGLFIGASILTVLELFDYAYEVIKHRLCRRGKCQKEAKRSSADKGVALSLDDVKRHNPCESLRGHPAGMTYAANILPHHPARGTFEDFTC
As to the kind of experiment: TEVC oocytes, rASIC1b double mutant CN/QK. It is filed as cell-based. How it is done: Two-electrode voltage-clamp (TEVC) experiments using Xenopus laevis oocytes were conducted as previously described. Briefly, oocytes were surgically removed from anaesthetised female frogs, then treated with collagenase (~ 1 mg/ml, Sigma type I) for 2 h under agitation at room temperature. cRNAs were synthesised using a mMessage mMachine T7 or SP6 transcription kit (Thermo Fisher Scientific Australia Pty Ltd, Scoresby, VIC, Australia) and injected into healthy stage V–VI oocytes at 0.2–20 ng per cell. […] Membrane currents were recorded 2–7 days after cRNA-injection under voltage-clamp at -60 mV (Axon Axoclamp 900 A, Molecular Devices, CA, USA) using two standard glass microelectrodes of 0.5–1 MΩ resistance when filled with 3 M KCl solution. […]
Specific to this work, the standard protocol was for oocytes to be conditioned at pH 7.45 and channels stimulated every 60 s using a 5 s pH 5 or 6 application, unless stated otherwise. […] Activation curves were determined by conditioning oocytes at pH 8 (Fig. 2e − g; and Fig. 5a and b) or 7.45 (Fig. 6; and Supplementary Fig. 2d and c) for 55 s and applying low pH stimuli from 7.25 to 5.0 for 5 s. Steady-state desensitisation (SSD) was determined by applying conditioning solutions of pH values from 8 to 6 for 115 s prior to stimulation by a pH drop to 5 for 5 s. […] Control pH-dependence curves were determined in the absence of any Ma-3. […]

As for “H-SLKCYQHGKVVTCHRDMKFCYHNIGMPFRNLKLILQGCSSSCSETENNKCCSTDRCNK (disulfide 4-20, 13-38, 42-50, 51-56 (inferred)) [Ma-3, mambalgin-3]”, the “shift of the activation curve towards acidic values” in experiment [1] (100 nM Ma-3, conditioning pH 8) came to 0.11 pH units. In experiment [1] (100 nM Ma-3, conditioning pH 8, mean ± SEM), the “slope of activation curve in presence of Ma-3” value was 2.68 ± 0.34. The “change of pH50 of the SSD curve” value in experiment [1] (100 nM Ma-3, stimulating pH 5) was “remained unchanged”. In experiment [1] (100 nM Ma-3, stimulating pH 5, mean ± SEM), the “slope of SSD curve in presence of Ma-3” value is 5.47 ± 0.95. In addition, the “pH50 of activation in presence of Ma-3” value was 6.03 ± 0.02 in experiment [1] (100 nM Ma-3 in conditioning solution, conditioning pH 8, Hill fit, mean ± SEM, n = 5–8) and 6.29 in experiment [2] (300 nM Ma-3, conditioning pH 7.45, Hill fit, n = 5–6). Besides, the “pH50 of steady-state desensitisation (SSD) in presence of Ma-3” value in experiment [1] (100 nM Ma-3 in conditioning solution, stimulating pH 5, Hill fit, mean ± SEM, n = 5–8) is on record as 7.12 ± 0.01. The remaining activity at 0.3 µM in experiment [1] (n = 5–8) worked out at 48%. Besides, the “Hill slope (95% CI)” value in experiment [2] (conditioning pH 7.45, pH 6 evoked currents, potentiation, 95% CI) is on record as 0.69–2.48.
As for “H-SLKCYQHGKVVTCHRDAKFCYHNIGMPFRNLKLILQGCSSSCSETENNKCCSTDRCNK (disulfide 4-20, 13-38, 42-50, 51-56 (inferred)) [M16A]”, in experiment [1] (n = 5–8), the remaining activity at 0.3 µM was 56%.
Regarding “H-SLKCYQHGAVVTCHRDMKFCYHNIGMPFRNLKLILQGCSSSCSETENNKCCSTDRCNK (disulfide 4-20, 13-38, 42-50, 51-56 (inferred)) [K8A]”, in experiment [1] (n = 5–8), the remaining activity at 0.3 µM was determined as 65%.
